Assay results as given in publication PMC6508677, “Identification of druggable small molecule antagonists of the Plasmodium falciparum hexose transporter PfHT and assessment of ligand access to the glucose permeation pathway via FLAG-mediated protein engineering” (PLoS ONE, 2019).
Values joined by “and” are separate entries in the source; they are usually repeats but may differ in a detail not shown here. Identical values can stand only once.

Experiments:
[1] = target: T1, hGLUT3 (Homo sapiens, UniProt P11169); experiment: 2-DG uptake by HEK293 cells overexpressing hGLUT3; type: cell-based; settings: for remaining activity at 0.001 µM: 0.001 µM compound; for remaining activity at 5 µM / inhibition at 5 µM: 5 μM compound; for remaining activity at 40 µM: 40 µM compound; for remaining activity at 80 µM: 80 µM compound; for remaining activity at 160 µM: 160 µM compound; for remaining activity at 225 µM: 225 µM compound; for IC50: IC50 for inhibition of 2-DG uptake
T1 construct: expressed in transfected cells; host or cells: HEK293 (HEK293-FLIP, native hGLUT1 knocked down by shRNA)
T1 sequence (P11169 1-496): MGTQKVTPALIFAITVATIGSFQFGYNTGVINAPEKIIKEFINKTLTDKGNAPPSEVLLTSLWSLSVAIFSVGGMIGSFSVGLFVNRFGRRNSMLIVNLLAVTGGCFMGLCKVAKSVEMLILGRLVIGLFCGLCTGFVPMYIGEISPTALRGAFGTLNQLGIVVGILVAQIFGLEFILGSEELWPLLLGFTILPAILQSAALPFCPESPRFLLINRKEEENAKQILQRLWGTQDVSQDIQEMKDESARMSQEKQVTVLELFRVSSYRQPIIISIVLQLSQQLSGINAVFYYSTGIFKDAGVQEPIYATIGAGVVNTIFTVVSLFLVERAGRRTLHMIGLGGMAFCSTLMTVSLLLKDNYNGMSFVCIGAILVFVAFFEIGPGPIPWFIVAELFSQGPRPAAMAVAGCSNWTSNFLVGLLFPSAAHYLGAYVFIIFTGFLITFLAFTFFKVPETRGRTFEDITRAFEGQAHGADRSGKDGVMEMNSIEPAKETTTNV
Description: (§1) Generation of HEK293 cells overexpressing PfHT and human GLUTs 1–4 were described elsewhere. Briefly, HEK293 cells were transfected with pcDNA3.1 FLII12Pglu-7006 (Addgene), containing the fluorescence resonance energy transfer (FRET) glucose sensor (HEK293-FLIP) and PfHT, human GLUT1 (hGLUT1), hGLUT2, hGLUT3, hGLUT4, hGLUT5 or hGLUT8 using Optifect (Life Technologies) according to manufacturer’s specifications. To increase retention of GLUT8 at the plasma membrane, the dileucine sorting signal E^7E^8XXXLL was modified to R^7R^8XXXLL as described in [17]. Stable transfectants were selected for G418 and hygromycin resistance to select for FRET sensor and hexose transporter, respectively. HEK293-FLIP cells were also used to generate cells stably transfected with FLAG-tagged PfHT (FTPfHT). FLAG tag ([…]) followed by a triple glycine linker and a tobacco etch virus (TEV) protease site (ENLYFQS) followed by a triple glycine linker was added to the N-terminus of PfHT via PCR [18] using Phusion Hot Start II High-Fidelity DNA Polymerase (Fisher Scientific). Single clones were selected by comparing their abilities to transport glucose as assayed via FRET and radiolabeled hexose uptake. In all cell lines, except for HEK293 cells overexpressing hGLUT1 and hGLUT5, native hGLUT1 was knocked down using shRNA as described elsewhere. Transcript levels of the individual GLUTs expressed in each cell line are as described in [13, 15] and in S1 Fig.
(§2) Glucose uptake by P. falciparum was performed essentially as described. P. falciparum strain 3D7 was cultured in 100 mm tissue culture dishes (Techno Plastic Products) in a 2% suspension of human erythrocytes and RPMI 1640 medium until reaching > 7.5% parasitemia. Cells were pelleted via centrifugation and resuspended in RPMI 1640 medium. To determine the uptake of radiolabeled glucose into the parasite, parasites were isolated from infected erythrocytes by permeablization with saponin (0.05 w/v), followed by centrifugation, aspiration of supernatant and washing of the pellet 3X with saline solution (135 mM NaCl, 2 mM KCl, 25 mM HEPES, 0.2 mM glucose and 1 mM MgCl2; pH 7.1) to remove cellular debris. WU-1 or DMSO vehicle were added to 100 μl parasites (resuspended in saline) 5 min prior to the addition of 100 μl [^14C]2-DOG (0.2- μCi/ml final concentration). 2-DG uptake was stopped after 2 min by layering the entire reaction over 300 μl of an oil mixture (5:4 mix of dibutyl phthalate / dinonyl phthalate) in Eppendorf tubes and centrifuged at 15,850 × g for 2 mins. The ratio of the estimated intracellular concentration of radiolabel relative to the extracellular concentration were calculated as described. Uptake of radiolabeled hexose into HEK293 cells was measured in glucose-free HBSS as described previously. Briefly, cells were plated at 400,000 cells/well overnight at 37°C in 24-well plates pre-treated with PEI. After 30-min incubation at 37°C in glucose-free HBSS in the presence of vehicle or increasing concentrations of compound, 2-DG uptake was measured in glucose-free HBSS for 4 min at 37°C. Cultures were washed in ice-cold 1X PBS and lysed in 0.1% Triton X-100 in 1X PBS. Radiolabeled hexose uptake was determined by liquid scintillation counting (Ultima Gold, Thermo Fisher) and normalized to total protein per well. Uptake data are plotted as percent uptake relative to vehicle-treated cells. Kinetic analyses were performed using the indicated concentrations of substrate and WU-1, with quenching of uptake after 1 min incubation. Incubation times had been previously determined as being in the linear range of time-dependent radiolabeled hexose uptake (2 min for 2-DG uptake into freed parasites; 2 and 4 min for D-Frc and 2-DG uptake HEK cell lines, respectively). Data were fit by least squares nonlinear regression analysis using GraphPad Prism 6.0 software.

[2] = target: T2, hGLUT2 (Homo sapiens, UniProt P11168); experiment: 2-DG uptake by HEK293 cells overexpressing hGLUT2; type: cell-based; settings: for remaining activity at 0.001 µM: 0.001 µM compound; for remaining activity at 1.25 µM: 1.25 µM compound; for remaining activity at 5 µM / inhibition at 5 µM: 5 μM compound; for remaining activity at 80 µM: 80 µM compound; for remaining activity at 160 µM: 160 µM compound; for IC50: IC50 for inhibition of 2-DG uptake
T2 construct: expressed in transfected cells; host or cells: HEK293 (HEK293-FLIP, native hGLUT1 knocked down by shRNA)
T2 sequence (P11168 1-524): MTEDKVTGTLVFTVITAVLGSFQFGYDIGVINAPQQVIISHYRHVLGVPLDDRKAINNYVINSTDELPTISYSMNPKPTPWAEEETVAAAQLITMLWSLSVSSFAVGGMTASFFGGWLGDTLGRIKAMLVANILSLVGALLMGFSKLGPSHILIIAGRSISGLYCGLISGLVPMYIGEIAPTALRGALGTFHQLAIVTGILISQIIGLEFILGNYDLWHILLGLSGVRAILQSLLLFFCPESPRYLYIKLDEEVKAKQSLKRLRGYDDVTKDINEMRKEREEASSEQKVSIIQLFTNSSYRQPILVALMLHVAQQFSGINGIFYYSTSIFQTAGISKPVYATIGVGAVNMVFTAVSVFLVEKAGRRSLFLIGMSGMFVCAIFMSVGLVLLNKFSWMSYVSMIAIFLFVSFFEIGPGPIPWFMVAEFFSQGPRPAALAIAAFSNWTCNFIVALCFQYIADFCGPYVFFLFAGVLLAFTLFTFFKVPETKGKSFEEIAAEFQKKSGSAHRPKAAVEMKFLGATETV
Description: as §1, §2

[3] = HEK293, 4 min, GLUT3, read-out: 2-DG uptake (percent uptake relative to vehicle), AVE per experiment
[4] = HEK293, 4 min, GLUT3, 2.5 µM compound, read-out: 2-DG uptake (percent uptake relative to vehicle), AVE per experiment
[5] = HEK293, 4 min, GLUT3, read-out: % Inhibition of 2-DG uptake vs vehicle
[6] = HEK293, 4 min, GLUT3, 10 µM compound, read-out: 2-DG uptake (percent uptake relative to vehicle), AVE per experiment
[7] = GLUT3 cell line, mean/reported value
[8] = individual experiments, GLUT3, Expt 1-3
[9] = HEK293, 4 min, GLUT2, read-out: 2-DG uptake (percent uptake relative to vehicle), AVE per experiment
[10] = HEK293, 4 min, GLUT2, 2.5 µM compound, read-out: 2-DG uptake (percent uptake relative to vehicle), AVE per experiment
[11] = HEK293, 4 min, GLUT2, read-out: % Inhibition of 2-DG uptake vs vehicle
[12] = GLUT2 cell line, mean/reported value
[13] = individual experiments, GLUT2, Expt 1-3

SMILES	remaining activity at 0.001 µM [1, 3]	remaining activity at 2.5 µM [1, 4]	remaining activity at 5 µM [1, 3]	inhibition at 5 µM [1, 5]	remaining activity at 10 µM [1, 6]	remaining activity at 40 µM [1, 3]	remaining activity at 80 µM [1, 3]	remaining activity at 160 µM [1, 3]	remaining activity at 225 µM [1, 3]	IC50 [1, 7]	IC50 [1, 8]	remaining activity at 0.001 µM [2, 9]	remaining activity at 1.25 µM [2, 9]	remaining activity at 2.5 µM [2, 10]	remaining activity at 5 µM [2, 9]	inhibition at 5 µM [2, 11]	remaining activity at 80 µM [2, 9]	remaining activity at 160 µM [2, 9]	IC50 [2, 12]	IC50 [2, 13]	other results
Cc1ccc(S(=O)(=O)CCNC(=O)c2c(-c3c(Cl)cccc3Cl)noc2C)cc1 [WU-1, 3-(2,6-dichlorophenyl)-5-methyl-N-[2-(4-methylbenzenesulfonyl)ethyl]-1,2-oxazole-4-carboxamide]	100%	103%	99.5%	0.48%	103%	82.5%	76.4%	80%	75.3%	> 100 µM	> 225 µM	100%	108%	110%	83%	~10%	73.8%	54.5%	> 50 µM	52.4 µM	IC50 for inhibition of 2-DG uptake, individual experiments ([1]; GLUT3, Expt 1-3): ambiguous; remaining activity at 1.25 µM ([1]; HEK293, 4 min, GLUT3, 1.25 µM compound, read-out: 2-DG uptake (percent uptake relative to vehicle), AVE per experiment): 110%; remaining activity at 20 µM ([1]; HEK293, 4 min, GLUT3, 20 µM compound, read-out: 2-DG uptake (percent uptake relative to vehicle), AVE per experiment): 102%; IC50 for inhibition of 2-DG uptake, individual experiments ([2]; GLUT2, Expt 1-3): ambiguous
COc1c(Br)cc([N+](=O)[O-])c(OC)c1C(=O)NC(=O)Nc1c(C)cccc1Cl [WU-2, 3-(3-bromo-2,6-dimethoxy-5-nitrobenzoyl)-1-(2-chloro-6-methylphenyl)urea]	100%	92.9%	92.4%	10 to 12%	95.1%	91.7%	81.9%	68.7%	77.5%	> 50 µM	103 µM and 61.6 µM and 11.4 µM	100%	102%	83.6%	74.5%	10 to 12%	35.2%	42.1%	15.9 ± 2.5 µM	14.1 µM and 20.8 µM and 12.9 µM	Maximum Inhibition (%) ([2]; 2-DG uptake, GLUT2 cell line): 62.0%; remaining activity at 10 µM ([2]; HEK293, 4 min, GLUT2, 10 µM compound, read-out: 2-DG uptake (percent uptake relative to vehicle), AVE per experiment): 62.8%; remaining activity at 20 µM ([2]; HEK293, 4 min, GLUT2, 20 µM compound, read-out: 2-DG uptake (percent uptake relative to vehicle), AVE per experiment): 64%; remaining activity at 40 µM ([2]; HEK293, 4 min, GLUT2, 40 µM compound, read-out: 2-DG uptake (percent uptake relative to vehicle), AVE per experiment): 39.5%; remaining activity at 225 µM ([2]; HEK293, 4 min, GLUT2, 225 µM compound, read-out: 2-DG uptake (percent uptake relative to vehicle), AVE per experiment): 30.9%
COc1cc(/C=N/NC(=O)c2cc(-c3ccccc3)sc2N)cc(OC)c1OC [WU-3, 2-amino-5-phenyl-N'-[(E)-(3,4,5-trimethoxyphenyl)methylidene]thiophene-3-carbohydrazide]	–	–	–	–	–	–	–	–	–	–	–	–	–	–	–	–	–	–	–	–	inhibition at 10 µM ([1]; HEK293, 4 min, GLUT3, 10 µM compound, read-out: % Inhibition of 2-DG uptake vs vehicle): ≥ 50%
COc1cc(/C=C2\COC/C(=C\c3cc(OC)c(OC)c(OC)c3)C2=O)cc(OC)c1OC [WU-5, (3E,5E)-3,5-bis[(3,4,5-trimethoxyphenyl)methylidene]oxan-4-one]	–	–	–	–	–	–	–	–	–	–	–	–	–	–	–	–	–	–	–	–	inhibition at 2.5 µM ([1]; HEK293, 4 min, GLUT3, 2.5 µM compound, read-out: % Inhibition of 2-DG uptake vs vehicle): ~20%; inhibition at 2.5 µM ([2]; HEK293, 4 min, GLUT2, 2.5 µM compound, read-out: % Inhibition of 2-DG uptake vs vehicle): ~70%
